Assays:
Assay in all cases: Test D pre-/postemergence plant response
Type in all cases: in vivo
[1] = test system: Surinam grass (Brachiaria decumbens)
In short: (§1)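 Under greenhouse conditions for 14 to 21 days, plants treated pre- or postemergence with surfactant-formulated compound were compared by eye with untreated controls and scored 0–100 (100 = complete control; dash = no result).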

[2] = test system: barnyardgrass (Echinochloa crus-galli)
In short: as §1

[3] = test system: bermudagrass (Cynodon dactylon)
In short: as §1

[4] = test system: dallisgrass (Paspalum dilatatum)
In short: as §1

[5] = test system: dayflower (Virginia (VA) dayflower, Commelina virginica)
In short: as §1

[6] = test system: goosegrass (Eleusine indica)
In short: as §1

[7] = test system: green foxtail (Setaria viridis)
In short: as §1

[8] = test system: groundsel (common groundsel, Senecio vulgaris); details: Postemergence
In short: as §1

[9] = test system: guineagrass (Panicum maximum)
In short: as §1

[10] = test system: itchgrass (Rottboellia cochinchinensis)
In short: as §1

[11] = test system: johnsongrass (Sorghum halepense)
In short: as §1

kochia (Kochia scoparia) = test system: kochia (Kochia scoparia)
In short: as §1

[12] = test system: mallow (common mallow, Malva sylvestris)
In short: as §1

[13] = test system: naked crabgrass (Digitaria nuda)
In short: as §1

[14] = test system: sowthistle (common sowthistle, Sonchus oleraceous)
In short: as §1

[15] = Postemergence, 16 g ai/ha, scale 0 to 100
[16] = Postemergence, 31 g ai/ha, scale 0 to 100
[17] = Postemergence, 125 g ai/ha, scale 0 to 100 (0 no effect, 100 complete control)
[18] = Postemergence, 62 g ai/ha, scale 0 to 100 (0 no effect, 100 complete control)
[19] = Preemergence, 16 g ai/ha, scale 0 to 100, 0 no effect, 100 complete control
[20] = Postemergence, 31 g ai/ha, scale 0 to 100 (0 no effect, 100 complete control)
[21] = Preemergence, 31 g ai/ha, scale 0 to 100 (0 no effect, 100 complete control)
[22] = Preemergence, 62 g ai/ha, scale 0 to 100
[23] = Preemergence, 125 g ai/ha, scale 0 to 100

Question: How did the “Plant response rating, Surinam Grass” value [1, 15] turn out when `Cc1c(F)cccc1-n1c(-c2ccccc2)ncc(C(=O)C2=C(O)CCCC2=O)c1=O` [Compound 47, 3-(3-fluoro-2-methylphenyl)-5-[(2-hydroxy-6-oxo-1-cyclohexen-1-yl)carbonyl]-2-phenyl-4(3H)-pyrimidinone] was run?
Answer: 35

Question: What about the “Plant response rating, Surinam Grass” value [1, 16] of the same compound?
Answer: 50

Question: And the “Plant response rating, Surinam Grass” value [1, 17]?
Answer: 70

Question: And the “Plant response rating, Surinam Grass” value [1, 18]?
Answer: 60

Question: What about the “Plant response rating, Surinam Grass” value [1, 19] of the same compound?
Answer: 0

Question: And the “Plant response rating, Barnyardgrass” value [2, 15]?
Answer: 70

Question: And the “Plant response rating, Barnyardgrass” value [2, 20]?
Answer: 70

Question: And the “Plant response rating, Barnyardgrass” value [2, 17]?
Answer: 70

Question: What about the “Plant response rating, Barnyardgrass” value [2, 18] of the same compound?
Answer: 70

Question: And the “Plant response rating, Barnyardgrass” value [2, 19]?
Answer: 0

Question: What about the “Plant response rating, Barnyardgrass” value [2, 21] of the same compound?
Answer: 0

Question: What about the “Plant response rating, Barnyardgrass” value [2, 22] of the same compound?
Answer: 5

Question: What about the “Plant response rating, Barnyardgrass” value [2, 23] of the same compound?
Answer: 5

Question: And the “Plant response rating, Bermudagrass” value [3, 15]?
Answer: 50

Question: And the “Plant response rating, Bermudagrass” value [3, 20]?
Answer: 50

Question: What about the “Plant response rating, Bermudagrass” value [3, 17] of the same compound?
Answer: 90

Question: And the “Plant response rating, Bermudagrass” value [3, 18]?
Answer: 70

Question: What about the “Plant response rating, Bermudagrass” value [3, 19] of the same compound?
Answer: 10

Question: What about the “Plant response rating, Bermudagrass” value [3, 21] of the same compound?
Answer: 25

Question: What about the “Plant response rating, Bermudagrass” value [3, 22] of the same compound?
Answer: 50

Question: What about the “Plant response rating, Bermudagrass” value [3, 23] of the same compound?
Answer: 100

Question: And the “Plant response rating, Dallisgrass” value [4, 15]?
Answer: 5

Question: What about the “Plant response rating, Dallisgrass” value [4, 16] of the same compound?
Answer: 10

Question: What about the “Plant response rating, Dallisgrass” value [4, 17] of the same compound?
Answer: 15

Question: What about the “Plant response rating, Dallisgrass” value [4, 18] of the same compound?
Answer: 15

Question: And the “Plant response rating, Dallisgrass” value [4, 19]?
Answer: 0

Question: And the “Plant response rating, Dallisgrass” value [4, 21]?
Answer: 25

Question: What about the “Plant response rating, Dallisgrass” value [4, 22] of the same compound?
Answer: 65

Question: And the “Plant response rating, Dallisgrass” value [4, 23]?
Answer: 75

Question: What about the “Plant response rating, Dayflower, VA” value [5, 15] of the same compound?
Answer: 10

Question: What about the “Plant response rating, Dayflower, VA” value [5, 16] of the same compound?
Answer: 15

Question: What about the “Plant response rating, Dayflower, VA” value [5, 17] of the same compound?
Answer: 30

Question: And the “Plant response rating, Dayflower, VA” value [5, 18]?
Answer: 20

Question: What about the “Plant response rating, Dayflower, VA” value [5, 19] of the same compound?
Answer: 35

Question: And the “Plant response rating, Dayflower, VA” value [5, 21]?
Answer: 35

Question: What about the “Plant response rating, Dayflower, VA” value [5, 22] of the same compound?
Answer: 50

Question: What about the “Plant response rating, Dayflower, VA” value [5, 23] of the same compound?
Answer: 50

Question: What about the “Plant response rating, Goosegrass” value [6, 15] of the same compound?
Answer: 40

Question: And the “Plant response rating, Goosegrass” value [6, 16]?
Answer: 65

Question: What about the “Plant response rating, Goosegrass” value [6, 17] of the same compound?
Answer: 65

Question: What about the “Plant response rating, Goosegrass” value [6, 18] of the same compound?
Answer: 65

Question: What about the “Plant response rating, Goosegrass” value [6, 19] of the same compound?
Answer: 0

Question: What about the “Plant response rating, Goosegrass” value [6, 21] of the same compound?
Answer: 0

Question: What about the “Plant response rating, Goosegrass” value [6, 22] of the same compound?
Answer: 5

Question: And the “Plant response rating, Goosegrass” value [6, 23]?
Answer: 75

Question: And the “Plant response rating, Foxtail, Green” value [7, 15]?
Answer: 5

Question: What about the “Plant response rating, Foxtail, Green” value [7, 16] of the same compound?
Answer: 35

Question: And the “Plant response rating, Foxtail, Green” value [7, 17]?
Answer: 95

Question: And the “Plant response rating, Foxtail, Green” value [7, 18]?
Answer: 50

Question: And the “Plant response rating, Foxtail, Green” value [7, 19]?
Answer: 0

Question: What about the “Plant response rating, Foxtail, Green” value [7, 21] of the same compound?
Answer: 0

Question: What about the “Plant response rating, Foxtail, Green” value [7, 22] of the same compound?
Answer: 0

Question: And the “Plant response rating, Foxtail, Green” value [7, 23]?
Answer: 0

Question: And the “Plant response rating, Groundsel” value ([8]; 16 g ai/ha, scale 0 to 100)?
Answer: 100

Question: What about the “Plant response rating, Groundsel” value ([8]; 31 g ai/ha, scale 0 to 100) of the same compound?
Answer: 100

Question: And the “Plant response rating, Groundsel” value ([8]; 125 g ai/ha, scale 0 to 100 (0 no effect, 100 complete control))?
Answer: 100

Question: What about the “Plant response rating, Groundsel” value ([8]; 62 g ai/ha, scale 0 to 100 (0 no effect, 100 complete control)) of the same compound?
Answer: 100

Question: What about the “Plant response rating, Guineagrass” value [9, 15] of the same compound?
Answer: 10

Question: And the “Plant response rating, Guineagrass” value [9, 16]?
Answer: 20

Question: And the “Plant response rating, Guineagrass” value [9, 17]?
Answer: 30

Question: And the “Plant response rating, Guineagrass” value [9, 18]?
Answer: 20

Question: What about the “Plant response rating, Guineagrass” value [9, 19] of the same compound?
Answer: 0

Question: And the “Plant response rating, Guineagrass” value [9, 21]?
Answer: 0

Question: What about the “Plant response rating, Guineagrass” value [9, 22] of the same compound?
Answer: 0

Question: And the “Plant response rating, Guineagrass” value [9, 23]?
Answer: 0

Question: And the “Plant response rating, Itchgrass” value [10, 15]?
Answer: 0

Question: And the “Plant response rating, Itchgrass” value [10, 16]?
Answer: 5

Question: What about the “Plant response rating, Itchgrass” value [10, 17] of the same compound?
Answer: 10

Question: And the “Plant response rating, Itchgrass” value [10, 18]?
Answer: 5

Question: And the “Plant response rating, Itchgrass” value [10, 19]?
Answer: 0

Question: And the “Plant response rating, Itchgrass” value [10, 21]?
Answer: 0

Question: And the “Plant response rating, Itchgrass” value [10, 22]?
Answer: 0

Question: And the “Plant response rating, Itchgrass” value [10, 23]?
Answer: 0

Question: What about the “Plant response rating, Johnsongrass” value [11, 15] of the same compound?
Answer: 5

Question: And the “Plant response rating, Johnsongrass” value [11, 16]?
Answer: 15

Question: What about the “Plant response rating, Johnsongrass” value [11, 17] of the same compound?
Answer: 65

Question: What about the “Plant response rating, Johnsongrass” value [11, 18] of the same compound?
Answer: 35

Question: What about the “Plant response rating, Johnsongrass” value [11, 19] of the same compound?
Answer: 0

Question: And the “Plant response rating, Johnsongrass” value [11, 21]?
Answer: 0

Question: And the “Plant response rating, Johnsongrass” value [11, 22]?
Answer: 0

Question: And the “Plant response rating, Johnsongrass” value [11, 23]?
Answer: 75

Question: And the “Plant response rating, Kochia” value (kochia (Kochia scoparia); [15])?
Answer: 0

Question: And the “Plant response rating, Kochia” value (kochia (Kochia scoparia); [16])?
Answer: 10

Question: What about the “Plant response rating, Kochia” value (kochia (Kochia scoparia); [17]) of the same compound?
Answer: 30

Question: What about the “Plant response rating, Kochia” value (kochia (Kochia scoparia); [18]) of the same compound?
Answer: 20

Question: And the “Plant response rating, Kochia” value (kochia (Kochia scoparia); [19])?
Answer: 0

Question: And the “Plant response rating, Kochia” value (kochia (Kochia scoparia); [21])?
Answer: 50

Question: And the “Plant response rating, Kochia” value (kochia (Kochia scoparia); [22])?
Answer: 100

Question: What about the “Plant response rating, Kochia” value (kochia (Kochia scoparia); [23]) of the same compound?
Answer: 100

Question: And the “Plant response rating, Mallow” value [12, 15]?
Answer: 35

Question: What about the “Plant response rating, Mallow” value [12, 16] of the same compound?
Answer: 50

Question: What about the “Plant response rating, Mallow” value [12, 17] of the same compound?
Answer: 65

Question: And the “Plant response rating, Mallow” value [12, 18]?
Answer: 65

Question: What about the “Plant response rating, Mallow” value [12, 19] of the same compound?
Answer: 0

Question: And the “Plant response rating, Mallow” value [12, 21]?
Answer: 0

Question: What about the “Plant response rating, Mallow” value [12, 22] of the same compound?
Answer: 65

Question: What about the “Plant response rating, Mallow” value [12, 23] of the same compound?
Answer: 98

Question: And the “Plant response rating, Crabgrass, Naked” value [13, 15]?
Answer: 20

Question: What about the “Plant response rating, Crabgrass, Naked” value [13, 16] of the same compound?
Answer: 35

Question: What about the “Plant response rating, Crabgrass, Naked” value [13, 17] of the same compound?
Answer: 65

Question: What about the “Plant response rating, Crabgrass, Naked” value [13, 18] of the same compound?
Answer: 35

Question: What about the “Plant response rating, Crabgrass, Naked” value [13, 19] of the same compound?
Answer: 0

Question: And the “Plant response rating, Crabgrass, Naked” value [13, 21]?
Answer: 0

Question: And the “Plant response rating, Crabgrass, Naked” value [13, 22]?
Answer: 60

Question: What about the “Plant response rating, Crabgrass, Naked” value [13, 23] of the same compound?
Answer: 98

Question: And the “Plant response rating, Sowthistle” value [14, 15]?
Answer: 90

Question: And the “Plant response rating, Sowthistle” value [14, 16]?
Answer: 100

Question: And the “Plant response rating, Sowthistle” value [14, 17]?
Answer: 100

Question: And the “Plant response rating, Sowthistle” value [14, 18]?
Answer: 100

Question: And the “Plant response rating, Sowthistle” value [14, 19]?
Answer: 65

Question: And the “Plant response rating, Sowthistle” value [14, 21]?
Answer: 65

Question: What about the “Plant response rating, Sowthistle” value [14, 23] of the same compound?
Answer: 100

Source: patent US8952024B2, “Herbicidal pyrimidone derivatives” (E I du Pont de Nemours and Company, priority 2009, dated 2015)
